Data published in patent US6670368B1, “Pyrimidine compounds with pharmaceutical activity” (AstraZeneca AB, priority 1999, dated 2003).

Biological target: T1, CDK4/Cyclin D1 (Homo sapiens, UniProt P11802)
T1 construct: made in house; host or cells: SF21 (Spodoptera frugiperda) insect cells, baculovirus co-infection, vector pVL1393
Test: in vitro kinase assay (Scintillation Proximity Assay), incorporation of [γ-33-P]-ATP into GST-Retinoblastoma
Type: biochemical
Details: CDK4/Cyclin D1 partially-purified enzyme, GST-Rb substrate, 0.2 μM ATP, room temperature 60 minutes; read-out: CDK4 inhibitory activity IC50
Method: The compounds were tested in an in vitro kinase assay in 96 well format using Scintillation Proximity Assay (SPA-obtained from Amersham) for measuring incorporation of [γ-33-P]-Adenosine Triphosphate into a test substrate (GST-Retinoblastoma). In each well was placed the compound to be tested (diluted in DMSO and water to correct concentrations) and in control wells either p16 as an inhibitor control or DMSO as a positive control.
Approximately 0.5 μl of CDK4/Cyclin D1 partially-purified enzyme (amount dependent on enzyme activity) diluted in 25 μl incubation buffer was added to each well then 20 μl of GST-Rb/ATP/ATP33 mixture (containing 0.5 μg GST-Rb and 0.2 μM ATP and 0.14 μCi [γ-33-P]-Adenosine Triphosphate), and the resulting mixture shaken gently, then incubated at room temperature for 60 minutes. To each well was then added 150 μL stop solution containing (0.8 mg/well of Protein A-PVT SPA bead (Amersham)), 20 pM/well of Anti-Glutathione Transferase, Rabbit IgG (obtained from Molecular Probes), 61 mM EDTA and 50 mM HEPES pH 7.5 containing 0.05% sodium azide.
The plates were sealed with Topseal-S plate sealers, left for two hours then spun at 2500 rpm, 1124×g., for 5 minutes. The plates were read on a Topcount for 30 seconds per well. […]

T1 sequence (P11802 whole entry): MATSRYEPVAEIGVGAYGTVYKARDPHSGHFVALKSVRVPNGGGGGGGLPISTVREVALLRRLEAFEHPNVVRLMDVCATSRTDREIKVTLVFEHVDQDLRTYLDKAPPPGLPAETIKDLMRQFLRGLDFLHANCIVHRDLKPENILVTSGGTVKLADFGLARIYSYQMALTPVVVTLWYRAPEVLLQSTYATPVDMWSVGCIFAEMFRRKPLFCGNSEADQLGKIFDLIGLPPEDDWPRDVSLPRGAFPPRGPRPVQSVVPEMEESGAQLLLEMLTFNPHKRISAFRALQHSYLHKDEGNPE
T1 sequence (P24385 whole entry partner): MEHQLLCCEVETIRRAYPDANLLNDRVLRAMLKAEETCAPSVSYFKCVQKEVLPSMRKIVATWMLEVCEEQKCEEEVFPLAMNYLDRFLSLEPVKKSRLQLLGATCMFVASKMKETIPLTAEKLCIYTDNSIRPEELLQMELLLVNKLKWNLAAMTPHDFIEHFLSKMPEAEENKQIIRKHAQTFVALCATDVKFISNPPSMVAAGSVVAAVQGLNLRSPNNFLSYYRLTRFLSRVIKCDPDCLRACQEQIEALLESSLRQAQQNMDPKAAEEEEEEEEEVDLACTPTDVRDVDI

IC50: 1200 nM
SMILES: Cc1ccc(C)c(Oc2cc(Nc3ccc(OCC(O)CN(C)C)cc3)ncn2)c1 (stereo not shown) [Example 6]
